The values that follow come from patent US12384771B2, “Pleuromutilin derivative containing thiazole-pyridine benzyl quaternary ammonium salt side chain and preparation method and use thereof” (SHAANXI UNIVERSITY OF SCIENCE AND TECHNOLOGY, priority 2022, dated 2025).

Counter-ions that a name gives are not always drawn.

In series [1] the test system is Acinetobacter baumannii ATCC 19606. Description: MIC, microbroth dilution, standard strains. The class given is cell-based. As to conditions: ATCC19606, ATCC 19606, read-out: Minimum inhibitory concentration. Summed up:
(§1)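 Broth microdilution MIC determination for pleuromutilin derivatives bearing a thiazole-pyridine benzyl quaternary ammonium side chain, with moxifloxacin as positive control. Standard gram-positive and gram-negative reference strains tested.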

Series [2] concerns methicillin-resistant Staphylococcus aureus ATCC 33591. As to the kind of experiment: MIC, microbroth dilution, standard strains. The class given is cell-based. As to conditions: ATCC33591, ATCC 33591, read-out: Minimum inhibitory concentration. The method in brief: as §1
A further series deals with Salmonella ATCC 14028. Description: MIC, microbroth dilution, standard strains. The format is cell-based. The following applies: ATCC14028, ATCC 14028, read-out: Minimum inhibitory concentration. Summed up: as §1
On the technique in general: Dilution methods test growth across graded concentrations, often in twofold steps.

Series [3] relates to Staphylococcus aureus ATCC 25923. Description: MIC, microbroth dilution, standard strains. The class given is cell-based. As to conditions: ATCC25923, ATCC 25923, read-out: Minimum inhibitory concentration. Summed up: as §1
In series [4] the test system is Escherichia coli ATCC 25922. As to the kind of experiment: MIC, microbroth dilution, standard strains. The format is cell-based. The following applies: ATCC25922, ATCC 25922, read-out: Minimum inhibitory concentration. The method in brief: as §1
Series [5] deals with Staphylococcus aureus ATCC 29213. As to the kind of experiment: MIC, microbroth dilution, standard strains. The following applies: ATCC29213, ATCC 29213, read-out: Minimum inhibitory concentration. The class given is cell-based. Summed up:
as §1

Series [6] has as its system Escherichia coli CMCC 44103. Description: MIC, microbroth dilution, standard strains. The following applies: CMCC44103, CMCC 44103, read-out: Minimum inhibitory concentration. The class given is cell-based. Summed up:
as §1

Series [7] relates to Mycoplasma hyopneumoniae clinical isolate LH strain (Mhp-LH). Description: Anti-mycoplasma activity assay, MIC. The format is cell-based. The following applies: Mesomycoplasma hyopneumoniae. The method, then: (§2) The minimum inhibitory concentration of the pleuromutilin derivative containing thiazole-pyridine benzyl quaternary ammonium salt side chain against different mycoplasmas was tested with tiamulin as (purchased from Shanghai Yuanye Bio-Technology Co., Ltd) a positive control using a microbroth dilution method, and the antibacterial effect of the compound against different mycoplasmas was evaluated.
(§3) Experimental strains include Mycoplasma hyopneumoniae standard strain J strain (Mhp-J; NCTC 10110), Mycoplasma hyopneumoniae clinical isolate LH strain (Mhp-LH), Mycoplasma hyorhini standard strain BTS-7 strain (Mhr-BTS-7; NCTC 10130), Mycoplasma gallisepticum R strain (MG-R) and Mycoplasma synoviae WVU1853 strain (MS-WVU1853; NCTC 10124) (purchased from National Collection of Type Cultures, United Kingdom).
(§4) The specific operation steps are as follows: • (1) preparation of KM2 medium: 38.9 g of KM2 medium (purchased from Guangdong Huankai Microbial Sci. & Tech. Co., Ltd.) was weighed, added to 800 mL of distilled water, boiled and dissolved, and autoclaved at 115° C. for 20 min for later use. • (2) preparation of bacterial liquid stock: 0.5 mL of each of Mycoplasma hyopneumoniae (Mhp), Mycoplasma hyorhina (Mhr), Mycoplasma gallisepticum (MG) and Mycoplasma synoviae (MS) was taken and transferred to 4.5 mL of KM2 liquid medium, and when the colour of the medium turned yellow, each of the bacteria was sub-packaged at 0.5 mL per tube, and stored as the bacterial liquid at −70° C. • (3) determination of bacterial liquid titre (colour change unit, CCU): 96-well plate method was used to measure the bacterial liquid titre. The preserved bacterial liquid stock was taken from −70° C., melt and equilibrated to room temperature. 0.18 mL of KM2 medium was added to each well of the middle 4 rows of the 96-well plate (that is, 4 parallels), 0.02 mL of the bacterial liquid stock was taken and added to the wells of the first column, respectively, and subjected to 10-fold dilution until 10^−11. A negative control containing only KM2 medium was set (column 12). The plate was sealed and put into an incubator at 37° C., and the results were observed day by day. The highest dilution at which the colour of the medium can change was the CCU/mL of the strain. • (4) determination of MIC: the minimum inhibitory concentration of the compound against mycoplasmas was determined by a microbroth dilution method. Each drug to be tested was prepared as a stock solution with a concentration of 2560 μg/mL, and each drug stock solution was 2-fold diluted with KM2 liquid medium, and the test concentration range was 0.015-128 μg/mL (large concentration gradient) and 0.000004-0.06 μg/mL (small concentration gradient). An appropriate amount of seed bacterial liquid was taken and diluted to 10^4 CCU/mL serially according to its titre. Drugs of various dilutions were added sequentially to the 96-well plate, and then an equal amount of diluted bacterial liquid was added. 200 μL of diluted mycoplasma liquid was set as a positive control, 200 μL of KM2 liquid culture medium was set as a negative control, and a solvent control group (10 μL of drug solvent+190 μL of mycoplasma liquid) was also set. Three parallels were set for each experiment. After all the culture plates were sealed, they were allowed to culture at 37° C. and observed daily, and the final MIC values were recorded. (See FIG. 22 for the MIC determination results of the representative compound 7 against 5 mycoplasma strains)

Series [8] deals with Mycoplasma gallisepticum R strain (MG-R). Description: Anti-mycoplasma activity assay, MIC. The format is cell-based. The following applies: Mycoplasmoides gallisepticum. The method, then:
as §2, §3, §4

Series [9] relates to Mycoplasma hyopneumoniae standard strain J strain (Mhp-J; NCTC 10110). As to the kind of experiment: Anti-mycoplasma activity assay, MIC. The class given is cell-based. The following applies: Mesomycoplasma hyopneumoniae, NCTC10110. The method, then:
as §2, §3, §4

Series [10] deals with Mycoplasma synoviae WVU1853 strain (MS-WVU1853; NCTC 10124). Description: Anti-mycoplasma activity assay, MIC. The class given is cell-based. As to conditions: Mycoplasmopsis synoviae, NCTC10124. The method, then: as §2, §3, §4
Series [11] relates to Mycoplasma hyorhini standard strain BTS-7 strain (Mhr-BTS-7; NCTC 10130). As to the kind of experiment: Anti-mycoplasma activity assay, MIC. The format is cell-based. The following applies: NCTC10130. The method, then:
as §2, §3, §4

Series [12] in a line: Determination of solubility of compounds (HPLC). As to conditions: thermodynamic from solid. The method, then: Experimental method: representative compounds 2, 4 and 7 were selected for solubility determination, and retapamulin hydrochloride was used as a control. 1 mg of each sample was taken and quantitatively dissolved in a 10 mL volumetric flask, and the absorption peak area was measured by a high-performance liquid chromatography; then, the saturated solutions of the representative compounds 2, 4 and 7 and the control drug retapamulin were diluted 10-fold, and the absorption peak area was determined by HPLC; their respective solubility was obtained by calculating the absorption peak area.
The experimental instrument was Shimadzu LC-16, the chromatographic column was Hypersil C18 ODS (4.6×250 mm×5 μm), the flow rate was 1.0 mL/min, the detection wavelength was 300 nm, and the mobile phase was 0.05 mol/L of aqueous acetic acid solution:acetonitrile=30:70.

As for `C=C[C@]1(C)C[C@@H](OC(=O)CSc2nc(-c3cc[n+](Cc4ccc([N+](=O)[O-])cc4)cc3)cs2)[C@]2(C)[C@H](C)CC[C@]3(CCC(=O)[C@H]32)[C@@H](C)[C@@H]1O` [Compound 7, 1-(4-(nitro)benzyl)-4-(2-(8-hydroxy-4,7,9,12-tetramethyl-3-oxo-7-vinyldecahydro-4,9a-propancyclopent[8]cyclen-5-yl)oxy)-2-oxoethyl)thiazol-4-yl)pyridyl bromide salt], the MIC in series [1] was found to be 2 µg/mL; in series [2], 1 µg/mL; in the series on Salmonella ATCC 14028, 2 µg/mL; in series [3], 0.5 µg/mL; in [4], 1 µg/mL; in series [5], 0.125 µg/mL. For the same molecule, the MIC in [6] stood at 0.5 µg/mL; in [7], 2 ng/mL; in series [8], 4 ng/mL; in series [9], 4 ng/mL; in series [10], 0.015 µg/mL; in [11], 8 ng/mL. For the same molecule, the solubility in series [12] (organic solvent or mixture) is 11300 µg/mL; in series [12] (pH 1.5, simulated gastric fluid), 3450 µg/mL; in series [12] (pH 7, water), 2540 µg/mL.

By solubility is commonly meant the dissolved amount per volume that the medium holds.
